Laboratory results published in US8663608B2, “Hydroxytyrosol compounds” (University of Cape Town, priority 2009, dated 2014).
Where “and” joins values, the source holds several entries; their conditions need not be identical. Equal entries are not always repeated.

Key:
Bax = assay: Western blot of Bax expression in UVA-irradiated HaCaTs; type: cell-based, human; conditions: for % Bax Expression: relative to control (100%)
Text: (§1) Apoptosis can take place through the extrinsic pathway or the intrinsic pathway. The extrinsic pathway involves transmembrane receptor-mediated interactions which involve members of the tumour necrosis factor (TNF). The intrinsic pathway is a mitochondrial-initiated event and thus is of interest for this study. The intrinsic pathway can progress in a caspase-dependent or independent way. The caspase-independent route involves a protein called AIF which when released from the mitochondria, translocates directly to the nucleus and induces apoptosis. The alternative caspase-dependent route involves members of the Bcl-2 family of proteins. This family of proteins is responsible for regulating the permeability of the mitochondrial membrane and can be either pro-apoptotic or anti-apoptotic; Bcl-2 is anti-apoptotic while Bax is pro-apoptotic. The cells' sensitivity to apoptotic stimuli depends on the balance of pro-apoptotic (Bax) and anti-apoptotic (Bcl-2) proteins. […] An excess of Bax results in the cells being more susceptible to apoptosis, and an excess of Bcl-2 renders the cells more resistant to apoptosis. To determine the nature of the anti-apoptotic effect mediated by Polymer Compound 57 and hydroxytyrosol due to UVA irradiation, the Bax/Bcl-2 ratio was studied using Western blot analysis. To evaluate the expression of Bcl-2, Bax and AIF, the cells were cultured and treated with varying concentrations between 200 and 1000 μM of Polymer Compound 57 and hydroxytyrosol for 18 hrs, and then irradiated at 22.3 J/cm^2. Protein extraction was conducted and proteins were quantified using the BCA method. […] The purpose of this control is to ensure that it is only the UVA rays that result in the observed effects, and not the heat in the chamber. Alpha tubilin was used as a loading control in each experiment to ensure that the results were quantified correctly. Since the Western blot results are quantified by band size, it is important to ensure that each sample has the same amount of protein when loaded and the loading control helps to determine this. The band obtained when the proteins are probed with the loading control represent the amount of protein in that loaded sample.

Bcl-2 = assay: Western blot of Bcl-2 expression in UVA-irradiated HaCaTs; type: cell-based, human; conditions: for % Bcl-2 Expression: relative to control (100%)
Text: as §1

AIF = assay: Western blot of AIF expression in UVA-irradiated HaCaTs; type: cell-based, human; conditions: for % AIF Expression: relative to control (100%)
Text: as §1

[1] = system: UVA-induced H2O2 production in keratinocytes; assay: ROS assay (DHR 123, FACS) in UVA-irradiated keratinocytes; type: cell-based, human
Text: UVA irradiation of cultured human skin cells results in over-elevated levels of H2O2 and other ROS (reactive oxygen species), with H2O2 being the predominant species. Dihydrorhodamine (DHR 123) can be used to detect H2O2 produced following irradiating the cells with UVA. […] The mean fluorescence (MF), read on a fluorescent activated cell sorter (FACS) machine thus indicates intracellular H2O2 production. To elucidate the effect that Polymer Compound 57 would have on the over-expression of ROS due to irradiation, H2O2 production in keratinocytes was measured. The cells were first treated with the various concentrations of the Polymer Compound 57, irradiated with UVA and then exposed to the dye DHR 123.

[2] = system: low density lipoprotein (LDL); assay: LDL oxidation assay (conjugated diene formation); type: biochemical; conditions: 50 μM test antioxidant; LDL oxidized with 5 μM CuCl2; relative to ascorbic acid
Description: Oxidation of low density lipoprotein (LDL) was performed according to the method developed by Nardini et al (1995). LDL was dialyzed in a 200 fold volume of PBS of pH 7 in the dark for 18 hrs. 100 μg/ml LDL, determined with the Bradford method, was oxidized with 5 μM CuCl2 for 4 hrs at 37° C. in the presence and absence of 50 μM test antioxidant. Conjugated diene formation was measured spectroscopically at 234 nm using a Unicam UV-visible spectrophotometer.
The antioxidant ability of Polymer Compound 57 to inhibit LDL oxidation was assessed by adding it to a reaction mixture containing LDL previously treated with copper to initiate the oxidation. The antioxidant ability of the compound was measured based on the increase in absorbance due to diene conjugation at 234 nm.

[3] = DPPH radical scavenging assay; type: biochemical; conditions: for Radical Scavenging Activity (%): compared to standard ascorbic acid (100%); for Final time of reaction: time to steady state
Description: The DPPH assay is based on the change in absorbance at 515 nm, upon reduction of the DPPH radical, by an antioxidant. The antioxidant activity of a putative antioxidant is measured by monitoring the decrease in absorbance when the colour of the solution fades. In this assay, the reaction between the test antioxidant and DPPH radical is allowed to continue until it reaches a steady state. The amount of the radical quenched when steady state is reached is dependent on the antioxidant capacity and the concentration of the antioxidant. 100 μl (1 mg/3 ml) of the respective sample was added to 3.9 ml DPPH solution (25 mg/L in methanol). The decrease in absorbance at 515 nm was monitored using a Unicam UV-visible spectrophotometer, until the reaction reached steady state.

HaCaTs = assay: XTT cell viability assay in HaCaTs; type: cell-based, human
Description: To evaluate the toxicity of Polymer Compound 57 an XTT assay was conducted. The assay is based on the ability of viable cells to reduce yellow XTT tetrazolium salts to an orange formazan which is then measured at an absorbance of 450 nm. The HaCaTs were incubated overnight with increasing concentrations of Polymer Compound 57. Cell viability was then evaluated by adding the XTT solution, incubating for 4 hrs at 37° C., and then reading the absorbance at 450 nm.
To further explore the effect of the antioxidants a dose and time response study was carried out to determine the long term effect of Polymer Compound 57.

[4] = FRAP assay (iron (III) reduction ability); type: biochemical; conditions: 1 ml (1 mg/3 ml) sample
Description: The FRAP assay measures the ability of an antioxidant to reduce a ferroin analog, the Fe complex of tripyridyltriazine, Fe (TPTZ)^3+, to the intensely blue coloured Fe^2+ in an acidic medium. Results are obtained as absorbance increases at 593 nm and can be expressed relative to an antioxidant standard, ascorbic acid in this case.
1 ml (1 mg/3 ml) of the respective sample was added to 2.5 ml of potassium phosphate buffer (pH 7, 500 mM) 2.5 ml potassium ferricyanide was added. This was followed by incubation at 50° C. for 20 min. 10% (v/v) trichloracetic acid was added to stop the reaction. 2.5 ml of water was then added to 2.5 ml of the reaction. Iron chloride (0.5 ml) was added. The reaction was allowed to stand for 30 min after which the absorbance was read at 700 nm.

Q: Which “% Bax Expression” value (Bax; 200 μM) does the source give for `OCCc1ccc(O)c(O)c1` [Hydroxytyrosol] here?
A: The value was 128%.

Q: And the “% Bax Expression” value (Bax; 333 μM)?
A: Its value is 116%.

Q: What about the “% Bax Expression” value (Bax; 1000 μM) of the same molecule?
A: The value was 100%.

Q: What about the “% Bcl-2 Expression” value (Bcl-2; 200 μM) of the same molecule?
A: The value was 83%.

Q: What about the “% Bcl-2 Expression” value (Bcl-2; 333 μM) of the same molecule?
A: The value was 90%.

Q: And the “increase in Bcl-2 levels of expression relative to the control” value (Bcl-2; 1000 μM)?
A: Its value is 7%.

Q: What about the “% Bcl-2 Expression” value (Bcl-2; 1000 μM) of the same molecule?
A: Its value is 110%.

Q: What about the “% AIF Expression” value (AIF; 200 μM) of the same molecule?
A: The value was 91%.

Q: And the “% AIF Expression” value (AIF; 333 μM)?
A: The value was 82%.

Q: And the “reduction of AIF levels relative to the control” value (AIF; 1000 μM)?
A: The value was 15%.

Q: And the “% AIF Expression” value (AIF; 1000 μM)?
A: Its value is 42%.

Q: Which results are given for `OCCc1cc(O)c(O)c(-c2cc(CCO)cc(O)c2O)c1` [Polymer Compound 57]?
A: reduction of Bax levels relative to the control (Bax; 200 μM): 75% and 70%; % Bax Expression (Bax; 200 μM): 31%; reduction of Bax levels relative to the control (Bax; 333 μM): 87.5%; % Bax Expression (Bax; 333 μM): 17%; reduction of Bax levels relative to the control (Bax; 500 μM): 87.5%; % Bax Expression (Bax; 1000 μM): 14%; decrease of Bax levels relative to the control (100%) (Bax; "lowest concentration" as printed): 85%; mean fluorescence (ROS level) relative to control of 100% ([1]; 200 μM): 87-100%; mean fluorescence (ROS level) relative to control of 100% ([1]; 333 μM): 85%; % Bcl-2 Expression (Bcl-2; 200 μM): 50%; % Bcl-2 Expression (Bcl-2; 333 μM): 84%; increase in Bcl-2 levels of expression relative to the control (Bcl-2; 500 μM): 16%; % Bcl-2 Expression (Bcl-2; 1000 μM): 118%; effect on absorbance at 234 nm due to diene conjugation [2]: absorbance-decreasing effect; AIF levels reduced to, relative to the control (AIF; 200 μM): 28%; % AIF Expression (AIF; 200 μM): 78%; AIF levels reduced to, relative to the control (AIF; 333 μM): 32%; % AIF Expression (AIF; 333 μM): 74%; AIF levels reduced to, relative to the control (AIF; 500 μM): 32%; % AIF Expression (AIF; 1000 μM): 38%; Radical Scavenging Activity (%) ([3]; 0.0004M sample): 86.7%; Final time of reaction ([3]; 0.0004M sample): 7 min; long term toxicity to HaCaTs (HaCaTs; 3 day period, concentrations non-toxic over 24 hr): non-toxic; concentrations resulting in marked decreases in cell viability (HaCaTs; HaCaTs, overnight incubation): higher than 500 μM; concentrations with no negative effect on cell viability (HaCaTs; HaCaTs, overnight incubation): 200 to 500 µM; antioxidant activity equivalent of ascorbic acid [4]: 363 mg/L

Q: Which “Radical Scavenging Activity (%)” value ([3]; 0.002M sample) does the source give for `O=C1O[C@H]([C@@H](O)CO)C(O)=C1O` [Ascorbic acid, reference compound] here?
A: The value was 100%.

Q: What about the “Final time of reaction” value ([3]; 0.002M sample) of the same molecule?
A: The value was 4 min.
